We go through 22 compounds from patent US9216957B2, “Androgen receptor antagonists and uses thereof” (SUZHOU KINTOR PHARMACEUTICALS, INC., priority 2011, dated 2015).

The structures appear in SMILES notation. Where two headings read alike, the source gives them in different places.

In the experiment the test system is Prostate-specific antigen (PSA) production in LNCaP cells. As to the kind of experiment: PSA Assay (inhibition of PSA production in prostate cancer cells, ELISA). It counts as cell-based, human. The conditions noted are these: Homo sapiens. As for the experimental part: PSA Assay (Inhibition Test of the Compound of the Present Invention on Prostate-Specific Antigen (PSA) Production in Various Prostate Cancer Cells).
Androgen dependent LNCaP cells were purchased from the American Type Culture Collection (ATCC, Manassas, Va.). These cells were grown in RPMI 1640 medium supplemented with 10% fetal bovine serum (FBS), 100 U/mL penicillin, 100 μg/mL streptomycin, and 0.25 μg/mL amphotericin B. The cells were maintained at 37° C. and 5% CO2. LNCaP cells between passage 20 and 35 were used for experiments. LNCaP is a hormone sensitive cell line. For the PSA assay, human prostate cancer cells LNCaP were seeded in a 96-well plate at a concentration of 5000 cells/100 μl/well. On the following day, Methyltrienolone (R1881, AR agonist) (final concentration 1 ng/ml), test compounds or bicalutamide (Casodex®, AstraZeneca) (final concentration 0.005 to 20 μM) were added. Three days after the addition, the concentration of PSA in the supernatant of the culture solution was measured by ELISA. ELISAs for human PSA in culture medium were performed using the ultra-sensitive assay procedure and reagents in the Active™ PSA assay kit (Diagnostic Systems Laboratories Inc., Webster, Tex.). Culture medium and standards (200 μl/well) were incubated in antibody-coated plates for 2 h at room temperature on a Titer plate shaker at 500-600 rpm. Wells were then washed five times. The HRP conjugate was diluted 1:20 with assay buffer, and 100 μl was added to all wells. The plates were incubated for 30 min at room temperature on the shaker and washed as before, and 100 μl TMB (3,3′,5,5′-tetramethylbenzidine, 0.4 g/l) was added. The plates were incubated for 10 min on the shaker, and the reaction was terminated with 100 μl stop solution. The plates were read using a plate reader at 450 nm with a 650 nm reference filter. PSA levels were normalized for differences in growth of LNCaP cells following various treatments as determined by the MTS assay. IC50 of PSA was calculated based on a seven point assay (concentrations of tested compound) and expressed as micromolar (uM).
On the technique in general: In an ELISA, binding on a coated surface is turned into a signal by an enzyme label.

The mark [1] stands for this setting: LNCaP, 72 h, read-out: LNCAP IC50 (uM), inhibition of PSA production, LNCaP cells, R1881 1 ng/ml, three days, seven point assay.

Turning to `CC(O)(CS(=O)(=O)c1ccc(F)cc1)C(=O)Nc1ccc(C#N)c(C(F)(F)F)c1` (stereo not shown) [Bicalutamide, reference compound], the IC50 (LNCaP cells, read-out: IC50 of inhibition of PSA production in LNCaP cells) came out at 3.1 µM.
On to `COC(=O)CCCc1ccc(N2C(=S)N(c3ccc(C#N)c(Cl)c3F)C(=O)C2(C)C)cc1` [Example 1, methyl 4-(4-(3-(3-chloro-4-cyano-2-fluorophenyl)-5,5-dimethyl-4-oxo-2-thioxoimidazolidin-1-yl)phenyl)butanoate], for which the IC50 under setting [1] is 1.34 µM.
Same read-out and setting: as for `COC(=O)CCCc1ccc(N2C(=S)N(c3ccc(C#N)c(C(F)(F)F)c3F)C(=O)C2(C)C)cc1` [Example 2, methyl 4-(4-(3-(4-cyano-2-fluoro-3-(trifluoromethyl)phenyl)-5,5-dimethyl-4-oxo-2-thioxoimidazolidin-1-yl)phenyl)butanoate], the figure is 1.45 µM; as for `COC(=O)CCc1ccc(N2C(=S)N(c3ccc(C#N)c(C(F)(F)F)c3F)C(=O)C2(C)C)cc1` [Example 3, methyl 3-(4-(3-(4-cyano-2-fluoro-3-(trifluoromethyl)phenyl)-5,5-dimethyl-4-oxo-2-thioxoimidazolidin-1-yl)phenyl)propanoate], 7.83 µM; as for `CNC(=O)CCc1ccc(N2C(=S)N(c3ccc(C#N)c(C(F)(F)F)c3F)C(=O)C2(C)C)cc1` [Example 4, 3-(4-(3-(4-cyano-2-fluoro-3-(trifluoromethyl)phenyl)-5,5-dimethyl-4-oxo-2-thioxoimidazolidin-1-yl)phenyl)-N-methylpropanamide], 14.4 µM.
With `CNC(=O)CCCc1ccc(N2C(=S)N(c3ccc(C#N)c(C(F)(F)F)c3F)C(=O)C2(C)C)cc1` [Example 5, 4-(4-(3-(4-cyano-2-fluoro-3-(trifluoromethyl)phenyl)-5,5-dimethyl-4-oxo-2-thioxoimidazolidin-1-yl)phenyl)-N-methylbutanamide], the IC50 under setting [1] is 0.37 µM.
On the same count and under the same terms, then `CNC(=O)CCCc1ccc(N2C(=S)N(c3cc(C(F)(F)F)c(C#N)cc3F)C(=O)C2(C)C)cc1` [Example 6, 4-(4-(3-(4-cyano-2-fluoro-5-(trifluoromethyl)phenyl)-5,5-dimethyl-4-oxo-2-thioxoimidazolidin-1-yl)phenyl)-N-methylbutanamide], with 4.75 µM; and `CNC(=O)CCCc1ccc(N2C(=S)N(c3ccc(C#N)c(Cl)c3F)C(=O)C2(C)C)cc1` [Example 7, 4-(4-(3-(3-chloro-4-cyano-2-fluorophenyl)-5,5-dimethyl-4-oxo-2-thioxoimidazolidin-1-yl)phenyl)-N-methylbutanamide], with 0.65 µM; and `CC1(C)C(=O)N(c2ccc(C#N)c(C(F)(F)F)c2F)C(=S)N1c1ccc(CCCC(N)=O)cc1` [Example 8, 4-(4-(3-(4-cyano-2-fluoro-3-(trifluoromethyl)phenyl)-5,5-dimethyl-4-oxo-2-thioxoimidazolidin-1-yl)phenyl)butanamide], with 0.43 µM.
In the case of `CC1(C)C(=O)N(c2ccc(C#N)c(Cl)c2F)C(=S)N1c1ccc(CCCC(N)=O)cc1` [Example 9, 4-(4-(3-(3-chloro-4-cyano-2-fluorophenyl)-5,5-dimethyl-4-oxo-2-thioxoimidazolidin-1-yl)phenyl)butanamide], the IC50 under setting [1] turned out to be 0.59 µM.
The same measure, in the same setting: then `CNC(=O)CCCc1ccc(N2C(=S)N(c3ccc(C#N)c(C(F)(F)F)c3F)C(=O)C23CCC3)cc1` [Example 10, 4-(4-(7-(4-cyano-2-fluoro-3-(trifluoromethyl)phenyl)-8-oxo-6-thioxo-5,7-diazaspiro[3.4]octan-5-yl)phenyl)-N-methylbutanamide], with 0.42 µM; and `CNC(=O)CCCc1ccc(N2C(=S)N(c3ccc(C#N)c(Cl)c3F)C(=O)C23CCC3)cc1` [Example 11, 4-(4-(7-(3-chloro-4-cyano-2-fluorophenyl)-8-oxo-6-thioxo-5,7-diazaspiro[3.4]octan-5-yl)phenyl)-N-methylbutanamide], with 0.54 µM; and `CN(C)C(=O)CCCc1ccc(N2C(=S)N(c3ccc(C#N)c(C(F)(F)F)c3F)C(=O)C2(C)C)cc1` [Example 12, 4-{4-[3-(4-Cyano-2-fluoro-3-trifluoromethyl-phenyl)-5,5-dimethyl-4-oxo-2-thioxo-imidazolidin-1-yl]-phenyl}-N,N-dimethyl-butyramide], with 0.61 µM.
The same measure, in the same setting: as for `COc1c(C#N)ccc(N2C(=O)C(C)(C)N(c3ccc(CCCC(=O)N(C)C)cc3)C2=S)c1F` [Example 13, 4-{4-[3-(4-Cyano-2-fluoro-3-methoxy-phenyl)-5,5-dimethyl-4-oxo-2-thioxo-imidazolidin-1-yl]-phenyl}-N,N-dimethyl-butyramide], the figure is 1.06 µM.
On the same count and under the same terms, as for `CN(C)C(=O)CCCc1ccc(N2C(=S)N(c3ccc(C#N)c(Cl)c3F)C(=O)C2(C)C)cc1` [Example 14, 4-{4-[3-(3-Chloro-4-cyano-2-fluoro-phenyl)-5,5-dimethyl-4-oxo-2-thioxo-imidazolidin-1-yl]-phenyl}-N,N-dimethyl-butyramide], the figure is 0.69 µM; as for `CNC(=O)CCOc1ccc(N2C(=S)N(c3ccc(C#N)c(C(F)(F)F)c3F)C(=O)C2(C)C)cc1` [Example 15, 3-(4-(3-(4-cyano-2-fluoro-3-(trifluoromethyl)phenyl)-5,5-dimethyl-4-oxo-2-thioxoimidazolidin-1-yl)phenoxy)-N-methylpropanamide], 0.45 µM; as for `CNC(=O)CCOc1ccc(N2C(=S)N(c3ccc(C#N)c(Cl)c3F)C(=O)C2(C)C)cc1` [Example 16, 3-(4-(3-(3-chloro-4-cyano-2-fluorophenyl)-5,5-dimethyl-4-oxo-2-thioxoimidazolidin-1-yl)phenoxy)-N-methylpropanamide], 0.58 µM.
For the compound `CNC(=O)COCc1ccc(N2C(=S)N(c3ccc(C#N)c(C(F)(F)F)c3F)C(=O)C2(C)C)cc1` [Example 17, 2-((4-(3-(4-cyano-2-fluoro-3-(trifluoromethyl)phenyl)-5,5-dimethyl-4-oxo-2-thioxoimidazolidin-1-yl)benzyl)oxy)-N-methylacetamide], the IC50 under setting [1] was 0.53 µM.
The same measure, in the same setting: then `CNC(=O)COCc1ccc(N2C(=S)N(c3ccc(C#N)c(Cl)c3F)C(=O)C2(C)C)cc1` [Example 18, 2-((4-(3-(3-chloro-4-cyano-2-fluorophenyl)-5,5-dimethyl-4-oxo-2-thioxoimidazolidin-1-yl)benzyl)oxy)-N-methylacetamide], with 0.56 µM.
Consider `CC1(C)C(=O)N(c2ccc(C#N)c(C(F)(F)F)c2F)C(=S)N1c1ccc(CCCc2ncc[nH]2)cc1` [Example 19, 4-(3-(4-(3-(1H-imidazol-2-yl)propyl)phenyl)-4,4-dimethyl-5-oxo-2-thioxoimidazolidin-1-yl)-3-fluoro-2-(trifluoromethyl)benzonitrile], for which, under setting [1], the IC50 was found to be 0.76 µM.
Still for that read-out and setting: then `CC1(C)C(=O)N(c2ccc(C#N)c(Cl)c2F)C(=S)N1c1ccc(CCCc2ncc[nH]2)cc1` [Example 20, 2-Chloro-3-fluoro-4-(3-{4-[3-(1H-imidazol-2-yl)-propyl]-phenyl}-4,4-dimethyl-5-oxo-2-thioxo-imidazolidin-1-yl)-benzonitrile], with 2.14 µM.
The same measure, in the same setting: then `COc1c(C#N)ccc(N2C(=O)C(C)(C)N(c3ccc(CCCc4ncc[nH]4)cc3)C2=S)c1F` [Example 21, 3-Fluoro-4-(3-{4-[3-(1H-imidazol-2-yl)-propyl]-phenyl}-4,4-dimethyl-5-oxo-2-thioxo-imidazolidin-1-yl)-2-methoxy-benzonitrile], with 1.83 µM.
